From US20080312255A1 (ASTRAZENECA AB, priority 2007, published 2008)

Molecular target: S. aureus GyrB ATPase (Staphylococcus aureus, UniProt P0A0K8)
Assay: S. aureus GyrB ATPase inhibition (ammonium molybdate/malachite green phosphate detection)
Format: biochemical
Settings: compound concentration of 1 μM
Outline: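 E. coli GyrA and S. aureus GyrB (250 pM each) with sheared salmon sperm DNA and 250 μM ATP, pH 7.5 Hepes buffer. Released phosphate detected by malachite green/ammonium molybdate at 650 nm; percent inhibition at 1 μM compound unless noted, normalized to 2% DMSO (0%) and EDTA (100%) controls.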

Sequence of S. aureus GyrB ATPase (P0AES4 whole entry): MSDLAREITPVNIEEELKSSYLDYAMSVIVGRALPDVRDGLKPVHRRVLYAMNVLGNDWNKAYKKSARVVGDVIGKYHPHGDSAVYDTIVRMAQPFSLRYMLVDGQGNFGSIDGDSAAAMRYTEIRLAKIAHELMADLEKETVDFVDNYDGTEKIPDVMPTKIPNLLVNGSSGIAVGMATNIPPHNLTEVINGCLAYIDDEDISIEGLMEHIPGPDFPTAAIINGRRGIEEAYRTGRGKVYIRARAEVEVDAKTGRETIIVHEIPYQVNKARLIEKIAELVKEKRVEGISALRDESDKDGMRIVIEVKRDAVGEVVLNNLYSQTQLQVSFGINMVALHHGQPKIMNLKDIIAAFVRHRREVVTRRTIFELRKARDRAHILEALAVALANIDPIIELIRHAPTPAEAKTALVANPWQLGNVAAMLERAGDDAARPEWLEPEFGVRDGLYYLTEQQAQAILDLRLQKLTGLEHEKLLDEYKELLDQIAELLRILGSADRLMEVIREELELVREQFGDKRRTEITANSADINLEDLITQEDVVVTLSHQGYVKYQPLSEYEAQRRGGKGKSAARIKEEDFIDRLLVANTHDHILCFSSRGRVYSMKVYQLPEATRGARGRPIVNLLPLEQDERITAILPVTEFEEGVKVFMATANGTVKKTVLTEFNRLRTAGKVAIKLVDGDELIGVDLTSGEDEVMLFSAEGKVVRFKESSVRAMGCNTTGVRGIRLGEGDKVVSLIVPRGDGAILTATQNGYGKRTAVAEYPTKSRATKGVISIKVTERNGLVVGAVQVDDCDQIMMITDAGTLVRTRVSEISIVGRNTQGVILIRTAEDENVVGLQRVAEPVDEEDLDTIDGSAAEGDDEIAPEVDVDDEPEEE
Sequence of S. aureus GyrB ATPase (P0A0K8 whole entry): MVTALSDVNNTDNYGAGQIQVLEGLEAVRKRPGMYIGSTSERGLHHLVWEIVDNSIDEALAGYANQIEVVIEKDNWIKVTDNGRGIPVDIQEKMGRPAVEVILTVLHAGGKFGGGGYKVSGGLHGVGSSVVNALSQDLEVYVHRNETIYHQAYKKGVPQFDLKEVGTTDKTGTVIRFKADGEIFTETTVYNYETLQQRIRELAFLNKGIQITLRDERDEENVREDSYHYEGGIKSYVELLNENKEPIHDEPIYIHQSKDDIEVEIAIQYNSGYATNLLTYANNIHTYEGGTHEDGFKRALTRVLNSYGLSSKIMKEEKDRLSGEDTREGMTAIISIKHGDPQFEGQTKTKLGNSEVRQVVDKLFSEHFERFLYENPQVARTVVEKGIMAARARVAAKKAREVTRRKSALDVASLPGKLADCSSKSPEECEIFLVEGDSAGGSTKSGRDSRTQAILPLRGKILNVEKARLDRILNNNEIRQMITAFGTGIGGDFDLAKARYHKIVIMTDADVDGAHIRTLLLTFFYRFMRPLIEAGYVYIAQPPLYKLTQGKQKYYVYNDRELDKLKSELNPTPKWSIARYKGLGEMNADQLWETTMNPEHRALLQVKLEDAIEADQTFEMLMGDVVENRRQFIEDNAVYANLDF

Structure (SMILES)	inhibition at 1 µM [%]
CCOC(=O)c1sc(N2CC[C@@H](NC(=O)c3[nH]c(C)c(Cl)c3Cl)[C@@H](OC)C2)nc1-c1ccncn1 [Example 81]	100
CCOC(=O)c1sc(N2CC[C@@H](NC(=O)c3[nH]c(C)c(Cl)c3Cl)[C@@H](F)C2)nc1-c1nc2ccccc2s1 [Example 56]	93.9
COCCn1ccnc1-c1nc(N2CC[C@@H](NC(=O)c3[nH]c(C)c(C#N)c3Cl)[C@@H](OC)C2)sc1C(=O)OC [Example 69]	100
CCOC(=O)c1sc(N2CC[C@@H](NC(=O)c3[nH]c(C)c(Cl)c3Cl)[C@@H](OC)C2)nc1-c1nc2ccccc2s1 [Example 54]	97.8
COCCn1ccnc1-c1nc(N2CC[C@@H](NC(=O)c3[nH]c(C)c(C#N)c3Cl)[C@@H](OC)C2)sc1C(=O)O [Example 30, 2-((3S,4R)-4-{[(3-Chloro-4-cyano-5-methyl-1H-pyrrol-2-yl)carbonyl]amino}-3-methoxypiperidin-1-yl)-4-[1-(2-methoxyethyl)-1H-imidazol-2-yl]-1,3-thiazole-5-carboxylic acid]	102
CO[C@H]1CN(c2nc(-c3ccncn3)c(C(=O)O)s2)CC[C@H]1NC(=O)c1[nH]c(C)c(Cl)c1Cl [Example 2, 2-((3S,4R)-4-{[(3,4-Dichloro-5-methyl-1H-pyrrol-2-yl)carbonyl]amino}-3-methoxypiperidin-1-yl)-4-pyrimidin-4-yl-1,3-thiazole-5-carboxylic acid]	101
Cc1[nH]c(C(=O)N[C@@H]2CCN(c3nc(-c4nccs4)c(C(=O)O)s3)C[C@@H]2F)c(Cl)c1Cl [Example 6, 2′-((3S,4R)-4-{[(3,4-Dichloro-5-methyl-1H-pyrrol-2-yl)carbonyl]amino}-3-fluoropiperidin-1-yl)-2,4′-bi-1,3-thiazole-5′-carboxylic acid]	99.9
CCOC(=O)c1sc(N2CC[C@@H](NC(=O)c3[nH]c(C)c(Cl)c3C#N)[C@@H](OC)C2)nc1-c1ncccn1 [Example 105, ethyl 2-((3S,4R)-4-(4-chloro-3-cyano-5-methyl-1H-pyrrole-2-carboxamido)-3-methoxypiperidin-1-yl)-4-(pyrimidin-2-yl)thiazole-5-carboxylate]	103
COC(=O)c1sc(N2CC[C@@H](NC(=O)c3[nH]c(C)c(Cl)c3Cl)[C@@H](OC)C2)nc1-c1cn(C)nn1 [Example 92, methyl 2-((3S,4R)-4-(3,4-dichloro-5-methyl-1H-pyrrole-2-carboxamido)-3-methoxypiperidin-1-yl)-4-(1-methyl-1H-1,2,3-triazol-4-yl)thiazole-5-carboxylate]	100
CCOC(=O)c1sc(N2CC[C@@H](NC(=O)c3[nH]c(C)c(Cl)c3Cl)[C@@H](OC)C2)nc1-c1cnc(C)cn1 [Example 96, ethyl 2-((3S,4R)-4-(3,4-dichloro-5-methyl-1H-pyrrole-2-carboxamido)-3-methoxypiperidin-1-yl)-4-(5-methylpyrazin-2-yl)thiazole-5-carboxylate]	90.2
Cc1[nH]c(C(=O)N[C@@H]2CCN(c3nc(-c4ccncn4)c(C(=O)O)s3)C[C@@H]2F)c(Cl)c1Cl [Example 5, 2-((3S,4R)-4-{[(3,4-Dichloro-5-methyl-1H-pyrrol-2-yl)carbonyl]amino}-3-fluoropiperidin-1-yl)-4-pyrimidin-4-yl-1,3-thiazole-5-carboxylic acid]	99.4
CCOC(=O)c1sc(N2CC[C@@H](NC(=O)c3[nH]c(C)c(Cl)c3Cl)[C@@H](OC)C2)nc1-c1cnccn1 [Example 53]	100
Cc1[nH]c(C(=O)N[C@@H]2CCN(c3nc(-c4cn(C)nn4)c(C(=O)O)s3)C[C@@H]2F)c(Cl)c1Cl [Example 116, 2-((3S,4R)-4-(3,4-dichloro-5-methyl-1H-pyrrole-2-carboxamido)-3-fluoropiperidin-1-yl)-4-(1-methyl-1H-1,2,3-triazol-4-yl)thiazole-5-carboxylic acid]	101
CO[C@H]1CN(c2nc(-c3ncccc3F)c(C(=O)O)s2)CC[C@H]1NC(=O)c1[nH]c(C)c(Cl)c1C#N [Example 123, 2-((3S,4R)-4-(4-chloro-3-cyano-5-methyl-1H-pyrrole-2-carboxamido)-3-methoxypiperidin-1-yl)-4-(3-fluoropyridin-2-yl)thiazole-5-carboxylic acid]	104
CCCO[C@H]1CN(c2nc(-c3ncccc3F)c(C(=O)O)s2)CC[C@H]1NC(=O)c1[nH]c(C)c(Cl)c1Cl [Example 160, 2-[(3S,4R)-4-{[(3,4-dichloro-5-methyl-1H-pyrrol-2-yl)carbonyl]amino}-3-propoxypiperidin-1-yl]-4-(3-fluoropyridin-2-yl)-1,3-thiazole-5-carboxylic acid]	4.5
CO[C@H]1CN(c2nc(-c3ncnn3C)c(C(=O)O)s2)CC[C@H]1NC(=O)c1cc(C#N)c(C)[nH]1 [Example 31, 2-((3S,4R)-4-{[(4-Cyano-5-methyl-1H-pyrrol-2-yl)carbonyl]amino}-3-methoxypiperidin-1-yl)-4-(1-methyl-1H-1,2,4-triazol-5-yl)-1,3-thiazole-5-carboxylic acid]	99.3

Structure (SMILES)	inhibition at 1 µM [%]
COC(=O)c1sc(N2CC[C@@H](NC(=O)c3[nH]c(C)c(Cl)c3Cl)[C@@H](OC)C2)nc1-c1ncnn1C [Example 66]	101
COCn1ccnc1-c1nc(N2CC[C@@H](NC(=O)c3[nH]c(C)c(Cl)c3Cl)[C@@H](OC)C2)sc1C(=O)O [Example 17, 2-((3S,4R)-4-{[(3,4-Dichloro-5-methyl-1H-pyrrol-2-yl)carbonyl]amino}-3-methoxypiperidin-1-yl)-4-[1-(methoxymethyl)-1H-imidazol-2-yl]-1,3-thiazole-5-carboxylic acid]	97.7
Cc1[nH]c(C(=O)N[C@@H]2CCN(c3nc(-c4ncnn4C)c(C(=O)O)s3)C[C@@H]2OCc2ccccc2)cc1Cl [Example 146, 2-[(3S,4R)-3-(benzyloxy)-4-{[(4-chloro-5-methyl-1H-pyrrol-2-yl)carbonyl]amino}piperidin-1-yl]-4-(1-methyl-1H-1,2,4-triazol-5-yl)-1,3-thiazole-5-carboxylic acid]	116
COC(=O)c1sc(N2CC[C@@H](NC(=O)c3[nH]c(C)c(Cl)c3Cl)[C@@H](OC)C2)nc1-c1csc(N(C)C)n1 [Example 73]	99.9
Cc1[nH]c(C(=O)N[C@@H]2CCN(c3nc(-c4ncc[nH]4)c(C(=O)O)s3)C[C@@H]2F)c(Cl)c1Cl [Example 20, 2-((3S,4R)-4-{[(3,4-Dichloro-5-methyl-1H-pyrrol-2-yl)carbonyl]amino}-3-fluoropiperidin-1-yl)-4-(1H-imidazol-2-yl)-1,3-thiazole-5-carboxylic acid]	98.6
COCCn1ccnc1-c1nc(N2CC[C@@H](NC(=O)c3[nH]c(C)c(Cl)c3Cl)[C@@H](OC)C2)sc1C(=O)OC [Example 64]	96.2
CO[C@H]1CN(c2nc(-c3cn(C)cn3)c(C(=O)O)s2)CC[C@H]1NC(=O)c1[nH]c(C)c(Cl)c1C#N [Example 125, 2-((3S,4R)-4-(4-chloro-3-cyano-5-methyl-1H-pyrrole-2-carboxamido)-3-methoxypiperidin-1-yl)-4-(1-methyl-1H-imidazol-4-yl)thiazole-5-carboxylic acid]	103
CNc1nc(-c2nc(N3CC[C@@H](NC(=O)c4[nH]c(C)c(Cl)c4Cl)[C@@H](F)C3)sc2C(=O)O)cs1 [Example 37, 2-((3S,4R)-4-{[(3,4-Dichloro-5-methyl-1H-pyrrol-2-yl)carbonyl]amino}-3-fluoropiperidin-1-yl)-2′-(methylamino)-4,4′-bi-1,3-thiazole-5-carboxylic acid]	101
COC(=O)c1sc(N2CC[C@@H](NC(=O)c3[nH]c(C)c(Cl)c3Cl)[C@@H](OC)C2)nc1-c1nc(C)c(C)n1C [Example 70]	99.5
COC(=O)c1sc(N2CC[C@@H](NC(=O)c3[nH]c(C)c(Cl)c3Cl)[C@@H](OC)C2)nc1-c1nccc(OC)n1 [Example 82]	103
CO[C@H]1CN(c2nc(-c3cn(C)cn3)c(C(=O)O)s2)CC[C@H]1NC(=O)c1[nH]c(C)c(Cl)c1Cl [Example 40, 2-((3S,4R)-4-{[(3,4-Dichloro-5-methyl-1H-pyrrol-2-yl)carbonyl]amino}-3-methoxypiperidin-1-yl)-4-(1-methyl-1H-imidazol-4-yl)-1,3-thiazole-5-carboxylic acid]	101
COC(=O)c1sc(N2CC[C@@H](NC(=O)c3cc(C#N)c(C)[nH]3)[C@@H](OC)C2)nc1-c1ncnn1C [Example 68]	97
COCCn1ccnc1-c1nc(N2CC[C@@H](NC(=O)c3cc(Cl)c(C)[nH]3)[C@@H](OCc3ccccc3)C2)sc1C(=O)O [Example 148, 2-[(3S,4R)-3-(benzyloxy)-4-{[(4-chloro-5-methyl-1H-pyrrol-2-yl)carbonyl]amino}piperidin-1-yl]-4-[1-(2-methoxyethyl)-1H-imidazol-2-yl]-1,3-thiazole-5-carboxylic acid]	99.9
COC(=O)c1sc(N2CC[C@@H](NC(=O)c3[nH]c(C)c(Cl)c3Cl)[C@@H](F)C2)nc1-c1cn(C)nn1 [Example 99, methyl 2-((3S,4R)-4-(3,4-dichloro-5-methyl-1H-pyrrole-2-carboxamido)-3-fluoropiperidin-1-yl)-4-(1-methyl-1H-1,2,3-triazol-4-yl)thiazole-5-carboxylate]	102
Cc1[nH]c(C(=O)N[C@@H]2CCN(c3nc(-c4ncccc4F)c(C(=O)O)s3)C[C@@H]2OCc2ccccc2)c(Cl)c1Cl [Example 144, 2-[(3S,4R)-3-(benzyloxy)-4-{[(3,4-dichloro-5-methyl-1H-pyrrol-2-yl)carbonyl]amino}piperidin-1-yl]-4-(3-fluoropyridin-2-yl)-1,3-thiazole-5-carboxylic acid]	114
CO[C@H]1CN(c2nc(-c3ccccn3)c(C(=O)O)s2)CC[C@H]1NC(=O)c1[nH]c(C)c(Cl)c1Cl [Example 7, 2-((3S,4R)-4-{[(3,4-Dichloro-5-methyl-1H-pyrrol-2-yl)carbonyl]amino}-3-methoxypiperidin-1-yl)-4-pyridin-2-yl-1,3-thiazole-5-carboxylic acid]	97.1
